{"source": "ChEMBL document CHEMBL2384987", "about": "“Metabolites from Microcystis aeruginosa bloom material collected at a water reservoir near Kibbutz Hafetz Haim, Israel” (J Nat Prod, 2013)", "key": {"Trypsin [1]": {"target": "T1, Trypsin (Homo sapiens, UniProt P07477+P07478+P35030)", "assay": "Inhibition of trypsin (unknown origin)", "type": "protein assay"}, "[2]": {"assay": "Inhibition of elastase (unknown origin)", "parameters": "species or system Homo sapiens"}, "Trypsin [3]": {"target": "T1, Trypsin", "assay": "Inhibition of trypsin (unknown origin) at 45.5 uM", "type": "protein assay"}, "[4]": {"assay": "Inhibition of chymotrypsin (unknown origin)", "parameters": "species or system Homo sapiens"}, "[5]": {"target": "Prothrombin (Homo sapiens) (UniProt P00734)", "assay": "Inhibition of thrombin (unknown origin) at 45.5 uM"}}, "note": "Calls of active or inactive are those of the source. The calls are words filed in the database; no cut-off is given here. *1 amine or outer side, *2 acyl side, *3 side chain or, on linkers, in order; H or OH if unused. Where a SMILES comes first, the peptide text is derived from it. Bridges are numbered along the chain shown (N, C = ends). [ ]: non-standard residue; d: D form. The star is where a group is joined. Propanoyl(2R-OH,3-(4-HOPh)) = O=C([C@H](O)Cc1ccc(O)cc1)*; X1 = CO[C@@H]1CC[C@H](C(=O)[*:2])N1[*:1]; NMeF = CN[C@@H](Cc1ccccc1)C(=O)O"}
{"smiles": "CC(=O)O[C@@H]1CC[C@@H]2C[C@H](C(N)=O)N(C(=O)[C@@H](Cc3ccc(O)cc3)NC(=O)[C@@H](O)Cc3ccc(O)cc3)[C@@H]2C1", "values": [{"measurement": "IC50", "setting": "Trypsin [1]", "result": 45.5, "unit": "µM"}]}
{"smiles": "CO[C@@H]1CC[C@@H]2C(=O)N[C@@H](CC(C)C)C(=O)N(C)[C@@H](Cc3ccccc3)C(=O)N[C@@H](C(C)C)C(=O)O[C@H](C)[C@H](NC(=O)[C@H](CC(N)=O)NC(=O)[C@H](O)Cc3ccc(O)cc3)C(=O)N[C@@H](CC(C)C)C(=O)N21", "note": "({Propanoyl(2R-OH,3-(4-HOPh))}-NTL[X1]L[NMeF]V; ester 2-C)", "values": [{"measurement": "IC50", "setting": "[2]", "result": 16.9, "unit": "µM"}, {"measurement": "inhibition", "setting": "Trypsin [3]", "result": "inactive"}, {"measurement": "IC50", "setting": "[4]", "result": 45.9, "unit": "µM"}, {"measurement": "inhibition", "setting": "[5]", "result": "inactive"}]}
{"smiles": "CC(C)C[C@@H]1NC(=O)[C@@H](NC(=O)[C@H](CC(N)=O)NC(=O)[C@H](O)Cc2ccc(O)cc2)[C@@H](C)OC(=O)[C@H](C(C)C)NC(=O)[C@H](Cc2ccccc2)N(C)C(=O)[C@H](CC(C)C)N2C(=O)[C@H](CC[C@H]2O)NC1=O", "values": [{"measurement": "IC50", "setting": "[2]", "result": 17.6, "unit": "µM"}, {"measurement": "inhibition", "setting": "Trypsin [3]", "result": "inactive"}, {"measurement": "IC50", "setting": "[4]", "result": 4.3, "unit": "µM"}, {"measurement": "inhibition", "setting": "[5]", "result": "inactive"}]}
{"smiles": "CC(C)C[C@@H]1NC(=O)[C@@H](NC(=O)[C@H](CC(N)=O)NC(=O)[C@H](O)Cc2ccc(O)cc2)[C@@H](C)OC(=O)[C@H](C(C)C)NC(=O)[C@H](Cc2ccccc2)N(C)C(=O)[C@H](CC(C)C)N2C=CC[C@H](NC1=O)C2=O", "values": [{"measurement": "IC50", "setting": "[2]", "result": 55.5, "unit": "µM"}, {"measurement": "inhibition", "setting": "Trypsin [3]", "result": "inactive"}, {"measurement": "IC50", "setting": "[4]", "result": 48.5, "unit": "µM"}, {"measurement": "inhibition", "setting": "[5]", "result": "inactive"}]}
